Patent publication EP4813992A1, “POLYARYL DERIVATIVE AND USE THEREOF” (Hangzhou HealZen Therapeutics Co., Ltd., priority 2023, dated 2025)

biological target: HPK1 kinase (Homo sapiens, UniProt Q92918); experiment: Lantha screen assay, inhibitory effect on HPK1 kinase; format: biochemical; conditions: initial compound concentration 1 µM
Description: The Lantha screen assay is used to evaluate the inhibitory effect of the compounds on HPK1 kinase. • a) Kinase buffer: 50 mM HEPES (pH 7.5), 10 mM MgCl2, 4 mM DTT, 0.01% Tween-20, 0.01% BSA. • b) Compound Preparation: The compound is diluted with DMSO, and the initial detection concentration of the compound is 1 µM and is diluted to the corresponding concentration. • c) Kinase response and termination: A kinase solution is prepared by adding kinase buffer, the kinase solution and the compound are added to the test plate to be incubated at room temperature for 10 minutes. Fluorescein-PKC and ATP are added to the kinase buffer to form a substrate solution, and 5 µl of the substrate solution is added to the test plate to start the reaction to be incubated at room temperature for 90 minutes; then, 10 µl of a mixture of antibody and EDTA is added to terminate the reaction to be incubated at room temperature for 60 minutes. • d) The date is read by Envision instrument to plot a curve with the Log concentration of the inhibitor as the X-axis and the inhibition rate as the Y-axis, and then the formula Y=Bottom + (Top-Bottom)/(1+(IC50/X)^HillSlope) is used to obtain IC50. Table 1 Inhibitory activity the compounds of the invention on HPK1 kinase

Sequence of HPK1 kinase (Q92918 whole entry): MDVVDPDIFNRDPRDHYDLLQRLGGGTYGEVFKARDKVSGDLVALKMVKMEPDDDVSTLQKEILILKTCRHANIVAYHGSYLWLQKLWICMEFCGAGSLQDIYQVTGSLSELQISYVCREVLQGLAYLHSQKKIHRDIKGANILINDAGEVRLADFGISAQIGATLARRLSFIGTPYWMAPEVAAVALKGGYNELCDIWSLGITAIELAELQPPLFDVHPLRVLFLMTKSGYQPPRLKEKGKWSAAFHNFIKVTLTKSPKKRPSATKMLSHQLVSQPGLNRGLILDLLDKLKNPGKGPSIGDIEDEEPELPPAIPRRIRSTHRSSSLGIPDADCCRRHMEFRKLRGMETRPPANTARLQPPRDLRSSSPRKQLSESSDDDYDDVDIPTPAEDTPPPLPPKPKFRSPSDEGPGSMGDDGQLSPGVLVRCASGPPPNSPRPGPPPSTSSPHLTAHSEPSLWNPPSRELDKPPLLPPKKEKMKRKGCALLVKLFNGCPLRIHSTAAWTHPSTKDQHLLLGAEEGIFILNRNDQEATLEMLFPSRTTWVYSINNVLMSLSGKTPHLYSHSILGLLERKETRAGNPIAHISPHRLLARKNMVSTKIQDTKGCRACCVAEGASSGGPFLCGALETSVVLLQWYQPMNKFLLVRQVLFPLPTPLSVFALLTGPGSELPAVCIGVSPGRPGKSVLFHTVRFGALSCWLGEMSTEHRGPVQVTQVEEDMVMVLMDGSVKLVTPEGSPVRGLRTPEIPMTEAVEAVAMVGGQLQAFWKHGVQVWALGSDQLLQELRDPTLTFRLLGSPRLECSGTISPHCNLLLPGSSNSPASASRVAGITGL

IC50	Compound
< 10 nM	Cc1cc(-c2cnc3[nH]cc(-c4ccc(C(=O)N(C)C)cc4)c3n2)cc(C)c1C1=CCN(C2CN(c3ccc(C(=O)NC4CCC(=O)NC4=O)cc3)C2)CC1 (stereo not shown) [compound 005]
< 10 nM	Cc1cc(-c2cnc3[nH]cc(-c4ccc(C(=O)N(C)C)cc4)c3n2)cc(C)c1C1=CCN(CC2CN(c3cc(F)c(C4CCC(=O)NC4=O)c(F)c3)C2)CC1 (stereo not shown) [compound 002]
< 10 nM	COc1ccc(C(=O)N2CC(CN3CC=C(c4c(C)cc(-c5cnc6[nH]cc(-c7ccc(C(=O)N(C)C)cc7)c6n5)cc4C)CC3)C2)cc1N1CCC(=O)NC1=O [compound 001]
< 10 nM	Cc1cc(-c2cnc3[nH]cc(-c4ccc(C(=O)N(C)C)cc4)c3n2)cc(C)c1C1=CCN(CC2CN(c3ccc4c(c3)c(C3CCC(=O)NC3=O)nn4C)C2)CC1 (stereo not shown) [compound 145]
< 10 nM	Cc1cc(-c2cnc3[nH]cc(-c4ccc(C(=O)N(C)C)cc4)c3n2)cc(C)c1C1=CCN(CC2CN(c3ccc(NC4CCC(=O)NC4=O)cc3)C2)CC1 (stereo not shown) [compound 043]
< 10 nM	Cc1cc(-c2cnc3[nH]cc(-c4ccc(C(=O)N(C)C)cc4)c3n2)cc(C)c1C1=CCN(CC2CC2Nc2ccc(C(=O)NC3CCC(=O)NC3=O)cc2)CC1 (stereo not shown) [compound 036]
< 10 nM	Cc1cc(-c2cnc3[nH]cc(-c4ccc(C(=O)N(C)C)cc4)c3n2)cc(C)c1C1=CCN(CC2CN(C(=O)c3ccc(Cl)c(N4CCC(=O)NC4=O)c3)C2)CC1 [compound 124]
< 10 nM	Cc1cc(-c2cnc3[nH]cc(-c4ccc(C(=O)N(C)C)cc4)c3n2)cc(C)c1C1=CCN(CC2CN(c3ccc(NC4CCC(=O)NC4=O)c(F)c3)C2)CC1 (stereo not shown) [compound 019]
< 10 nM	CN(C)C(=O)c1ccc(-c2c[nH]c3ncc(-c4cnc(C5=CCN(CC6CN(c7ccc(C(=O)NC8CCC(=O)NC8=O)cn7)C6)CC5)c(F)c4)nc23)cc1 (stereo not shown) [compound 054]
< 10 nM	Cc1cc(-c2cnc3[nH]cc(-c4ccc(C(=O)N(C)C)nc4)c3n2)cc(C)c1C1=CCN(CC2CN(c3ccc(C(=O)NC4CCC(=O)NC4=O)cc3)C2)CC1 (stereo not shown) [compound 030]
< 10 nM	Cc1cc(-c2cnc3[nH]cc(-c4ccc(C(=O)N(C)C[C@H](C)O)cc4)c3n2)cc(C)c1C1=CCN(CC2CN(c3ccc(C(=O)NC4CCC(=O)NC4=O)cc3)C2)CC1 (stereo partly shown) [compound 032]
< 10 nM	Cc1cc(N2CC(CN3CC=C(c4c(C)cc(-c5cnc6[nH]cc(-c7ccc(C(=O)N(C)C)cc7)c6n5)cc4C)CC3)C2)ccc1NC1CCC(=O)NC1=O (stereo not shown) [compound 021]
< 10 nM	Cc1cc(-c2c[nH]c3ncc(-c4cc(C)c(C5=CCN(CC6CN(c7ccc(C(=O)NC8CCC(=O)NC8=O)cc7)C6)CC5)c(C)c4)nc23)ccc1C(=O)N1CC2(COC2)C1 (stereo not shown) [compound 050]
< 10 nM	Cc1cc(-c2cnc3[nH]cc(-c4ccc(C(=O)N(C)C)cc4)c3n2)cc(C)c1C1=CCN(CC2CCN(c3ccc(C(=O)NC4CCC(=O)NC4=O)cc3)CC2)CC1 (stereo not shown) [compound 065]
< 10 nM	COc1ccc(C(=O)N2CC(CN3CC=C(c4ncc(-c5cnc6[nH]cc(-c7ccc(C(=O)N(C)C)cc7)c6n5)cc4CN(C)C)CC3)C2)cc1N1CCC(=O)NC1=O [compound 053]
< 10 nM	Cc1cc(-c2cnc3[nH]cc(-c4ccc(C(=O)N5CC6(COC6)C5)cc4)c3n2)cc(C)c1C1=CCN(CC2CN(c3ccc(C(=O)NC4CCC(=O)NC4=O)cc3)C2)CC1 (stereo not shown) [compound 075]
< 10 nM	Cc1cc(-c2cnc3[nH]cc(-c4ccc(C(=O)N(C)C)cc4)c3n2)cc(C)c1C1=CCN(CC2CN(c3ccc4c(=O)n(C5CCC(=O)NC5=O)ccc4c3)C2)CC1 (stereo not shown) [compound 084]
< 10 nM	Cc1cc(-c2cnc3[nH]cc(-c4ccc(C(=O)N(C)C)cc4)c3n2)cc(C)c1C1=CCN(CC2CN(c3ccc(C4CCC(=O)NC4=O)cc3)C2)CC1 (stereo not shown) [compound 102]
< 10 nM	Cc1cc(-c2cnc3[nH]nc(-c4ccc(C(=O)N(C)C)cc4)c3c2)cc(C)c1C1=CCN(CC2CN(c3ncc(C(=O)NC4CCC(=O)NC4=O)o3)C2)CC1 (stereo not shown) [compound 077]
< 10 nM	Cc1cc(-c2cnc3[nH]cc(-c4ccc(C(=O)N(C)C)cc4)c3n2)cc(C)c1C1=CCN(CC2CN(c3cccc(C4CCC(=O)NC4=O)c3)C2)CC1 (stereo not shown) [compound 025]
< 10 nM	Cc1cc(-c2cnc3[nH]cc(-c4ccc(C(=O)N(C)C)cc4)c3n2)cc(C)c1C1=CCN(CC2CN(c3ccc(NC4CCC(=O)NC4=O)cn3)C2)CC1 (stereo not shown) [compound 022]
< 10 nM	COc1cc(N2CC(CN3CC=C(c4c(C)cc(-c5cnc6[nH]cc(-c7ccc(C(=O)N(C)C)cc7)c6n5)cc4C)CC3)C2)ccc1C(=O)NC1CCC(=O)NC1=O (stereo not shown) [compound 059]

The next lines start with the compound.

Compound	IC50
Cc1cc(N2CC(CN3CC=C(c4c(C)cc(-c5cnc6[nH]cc(-c7cccc(C#N)c7F)c6c5)cc4C)CC3)C2)ccc1N1CCC(=O)NC1=O [compound 101]	< 10 nM
Cc1cc(-c2cnc3[nH]cc(-c4cnc5[nH]ccc5c4)c3n2)cc(C)c1C1=CCN(C2CN(c3ccc(C(=O)NC4CCC(=O)NC4=O)cc3)C2)CC1 (stereo not shown) [compound 070]	< 10 nM
Cc1cc(-c2cnc3[nH]nc(-c4ccc(C(=O)N(C)C)cc4)c3n2)cc(C)c1C1=CCN(CC2CCN(c3ccc(N4CCC(=O)NC4=O)c(F)c3)C2)CC1 (stereo not shown) [compound 076]	< 10 nM
Cc1cc(-c2cnc3[nH]cc(-c4ccc(C(=O)N(C)C)cc4)c3n2)cc(C)c1C1=CCN(CC(=O)Cc2ccc(C3CCC(=O)NC3=O)c(F)c2)CC1 (stereo not shown) [compound 006]	< 10 nM
Cc1cc(-c2cnc3[nH]cc(-c4ccc(C(=O)N(C)C)cc4)c3n2)cc(C)c1C1=CCN(C2CN(c3ccc(C4CCC(=O)NC4=O)cc3)C2)CC1 (stereo not shown) [compound 048]	< 10 nM
Cc1cc(N2CC3(CC(N4CC=C(c5c(C)cc(-c6cnc7[nH]cc(-c8ccc(C(=O)N(C)C)cc8)c7n6)cc5C)CC4)C3)C2)ccc1N1CCC(=O)NC1=O [compound 034]	< 10 nM
Cc1cc(-c2cnc3[nH]cc(-c4ccc5c(c4)C(C)(C)OC5=O)c3n2)cc(C)c1C1=CCN(C2CN(c3ccc(C4CCC(=O)NC4=O)cc3)C2)CC1 (stereo not shown) [compound 066]	< 10 nM
Cc1cc(-c2cnc3[nH]cc(-c4ccc(C(=O)N(C)C)cc4)c3n2)cc(C)c1C1=CCN(CC2CN(c3cccc(N4CCC(=O)NC4=O)c3C)C2)CC1 [compound 027]	< 10 nM
Cc1cc(-c2cnc3[nH]nc(-c4ccc(C(=O)N(C)C)cc4)c3c2)cc(C)c1C1=CCN(C2CCN(c3ccc(C(=O)NC4CCC(=O)NC4=O)cn3)CC2)CC1 (stereo not shown) [compound 080]	< 10 nM
CNc1cc(-c2cnc3[nH]cc(-c4ccc(C(=O)N(C)C)cc4)c3n2)ccc1C1=CCN(CC2CN(c3ccc(N4CCC(=O)NC4=O)c(C)c3)C2)CC1 [compound 131]	< 10 nM
Cc1cc(NCC2(CN3CC=C(c4c(C)cc(-c5cnc6[nH]cc(-c7ccc(C(=O)N(C)C)cc7)c6n5)cc4C)CC3)CC2)ccc1N1CCC(=O)NC1=O [compound 040]	< 10 nM
Cc1cc(-c2cnc3[nH]cc(-c4ccc(C(=O)N(C)C)cc4)c3n2)cc(C)c1C1=CCN(C2CC(C(=O)c3ccc(F)c(N4CCC(=O)NC4=O)c3)C2)CC1 (stereo not shown) [compound 037]	< 10 nM
Cc1cc(-c2cnc3[nH]cc(-c4ccc(C(=O)N(C)C)cc4)c3n2)cc(C)c1C1=CCN(C(=O)CCc2cc(F)c(N3CCC(=O)NC3=O)c(F)c2)CC1 [compound 047]	< 10 nM
Cc1cc(-c2cnc3[nH]cc(-c4ccc(C(=O)N(C)C)cc4)c3n2)cc(C)c1C1=CCN(CC2CN(c3ccc4c(c3)c(N3CCC(=O)NC3=O)nn4C)C2)CC1 [compound 143]	< 10 nM
COc1cc(N2CC(CN3CC=C(c4c(C)cc(-c5cnc6[nH]cc(-c7ccc(C(=O)N(C)C)cc7)c6n5)cc4C)CC3)C2)ccc1N1CCC(=O)NC1=O [compound 004]	< 10 nM
Cc1cc(-c2cnc3[nH]cc(-c4ccc(C(=O)N(C)C)cc4)c3n2)cc(C)c1C1=CCN(CC2CN(c3ccc(NC4CCC(=O)NC4=O)cc3F)C2)CC1 (stereo not shown) [compound 106]	< 10 nM
Cc1cc(-c2cnc3[nH]cc(-c4ccc(C(=O)N(C)C)c5ccccc45)c3n2)cc(C)c1C1=CCN(C2CN(c3ncc(C(=O)NC4CCC(=O)NC4=O)o3)C2)CC1 (stereo not shown) [compound 064]	< 10 nM
COc1ccc(C(=O)C2CCC(N3CC=C(c4c(C)cc(-c5cnc6[nH]cc(-c7ccc(C(=O)N(C)C)cc7)c6n5)cc4C)CC3)C2)cc1N1CCC(=O)NC1=O (stereo not shown) [compound 044]	< 10 nM
Cc1cc(N2CC3CC(N4CC=C(c5c(C)cc(-c6cnc7[nH]cc(-c8ccc(C(=O)N(C)C)cc8)c7c6)cc5C)CC4)CC3C2)ccc1N1CCC(=O)NC1=O (stereo not shown) [compound 115]	< 10 nM
Cc1cc(N2CC(CCN3CC=C(c4c(C)cc(-c5cnc6[nH]cc(-c7ccc(C(=O)N(C)C)cc7)c6n5)cc4C)CC3)C2)ccc1N1CCC(=O)NC1=O [compound 127]	< 10 nM
Cc1cc(N2CC(CN3CC=C(c4c(C)cc(-c5cnc6[nH]cc(-c7cnn(C8CCN(C9CCC9)CC8)c7)c6c5)cc4C)CC3)C2)ccc1N1CCC(=O)NC1=O [compound 122]	< 10 nM
CNS(=O)(=O)c1cc(C)cc(-c2cnc(N)c(Oc3cnn(C4CCN(CC5CN(c6ccc(C(=O)NC7CCC(=O)NC7=O)cc6)C5)CC4)c3)n2)c1 (stereo not shown) [compound 090]	< 10 nM
COCC(C)N1CCC(n2cc(-c3c[nH]c4ncc(-c5cc(C)c(C6=CCN(CC7CN(c8ccc(N9CCC(=O)NC9=O)c(C)c8)C7)CC6)c(C)c5)cc34)cn2)CC1 (stereo not shown) [compound 128]	< 10 nM
Cc1cc(-c2cnc3[nH]cc(-c4ccc(C(=O)N(C)C)cc4)c3c2)cc(C)c1C1=CCN(CC2CCN(C(=O)c3ccc(Cl)c(N4CCC(=O)NC4=O)c3)CC2)CC1 [compound 126]	< 10 nM
